According to PubChem BioAssay (NCI):
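Each compound was tested at five concentrations against cells in 96-well plates for 48 hours. GI50 = concentration required for 50% inhibition of growth. TGI is the concentration that stops growth completely.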

Legend:
Experiment in all cases: growth of human tumour cells (NCI), 48 h
RPMI-8226 leukemia = tested on: RPMI-8226 leukemia
TK-10 renal = tested on: TK-10 renal
SNB-19 CNS = tested on: SNB-19 CNS
OVCAR-4 ovarian = tested on: OVCAR-4 ovarian
SR leukemia = tested on: SR leukemia
OVCAR-8 ovarian = tested on: OVCAR-8 ovarian
NCI-H23 lung = tested on: NCI-H23 lung
CCRF-CEM leukemia = tested on: CCRF-CEM leukemia
HOP-92 NSCLC = tested on: HOP-92 NSCLC
LOX IMVI melanoma = tested on: LOX IMVI melanoma
UO-31 renal = tested on: UO-31 renal
NCI/ADR-RES ovarian = tested on: NCI/ADR-RES ovarian
HS 578T breast = tested on: HS 578T breast
MDA-MB-231 breast = tested on: MDA-MB-231 breast
EKVX NSCLC = tested on: EKVX NSCLC
T-47D breast = tested on: T-47D breast
SK-OV-3 ovarian = tested on: SK-OV-3 ovarian
MCF7 breast = tested on: MCF7 breast
SK-MEL-28 melanoma = tested on: SK-MEL-28 melanoma
DU-145 prostate = tested on: DU-145 prostate
KM12 colon = tested on: KM12 colon
U251 CNS = tested on: U251 CNS
OVCAR-5 ovarian = tested on: OVCAR-5 ovarian
IGROV1 ovarian = tested on: IGROV1 ovarian
UACC-257 melanoma = tested on: UACC-257 melanoma
MDA-MB-435 = tested on: MDA-MB-435
NCI-H226 lung = tested on: NCI-H226 lung
BT-549 breast = tested on: BT-549 breast
COLO 205 colon = tested on: COLO 205 colon
HCC-2998 colon = tested on: HCC-2998 colon
SK-MEL-2 melanoma = tested on: SK-MEL-2 melanoma
SW-620 colon = tested on: SW-620 colon
HL-60(TB) leukemia = tested on: HL-60(TB) leukemia
SN12C renal = tested on: SN12C renal
MOLT-4 leukemia = tested on: MOLT-4 leukemia
HCT-15 colon = tested on: HCT-15 colon
M14 melanoma = tested on: M14 melanoma
HT29 colon = tested on: HT29 colon
SF-539 CNS = tested on: SF-539 CNS
786-0 renal = tested on: 786-0 renal
A498 renal = tested on: A498 renal
SF-295 CNS = tested on: SF-295 CNS
CAKI-1 renal = tested on: CAKI-1 renal
NCI-H460 lung = tested on: NCI-H460 lung
MALME-3M melanoma = tested on: MALME-3M melanoma
RXF 393 renal = tested on: RXF 393 renal
SNB-75 CNS = tested on: SNB-75 CNS
ACHN renal = tested on: ACHN renal
A549 NSCLC = tested on: A549 NSCLC
SF-268 CNS = tested on: SF-268 CNS
PC-3 prostate = tested on: PC-3 prostate
K-562 leukemia = tested on: K-562 leukemia
UACC-62 melanoma = tested on: UACC-62 melanoma
NCI-H522 lung = tested on: NCI-H522 lung
HOP-62 NSCLC = tested on: HOP-62 NSCLC
HCT-116 colon = tested on: HCT-116 colon
SK-MEL-5 melanoma = tested on: SK-MEL-5 melanoma

Structure (SMILES): CNC(=O)c1cc(Oc2ccc3c(c2)sc2nc(-c4ccc(N(C)C)cc4)cn23)ccn1
- GI50 (RPMI-8226 leukemia): 329 nM
- TGI (RPMI-8226 leukemia): > 50000 nM
- GI50 (TK-10 renal): 3720 nM
- TGI (TK-10 renal): > 50000 nM
- GI50 (SNB-19 CNS): 251 nM
- TGI (SNB-19 CNS): > 50000 nM
- TGI (OVCAR-4 ovarian): > 50000 nM
- GI50 (SR leukemia): 114 nM
- TGI (SR leukemia): > 50000 nM
- GI50 (OVCAR-8 ovarian): 355 nM
- TGI (OVCAR-8 ovarian): 2600 nM
- GI50 (NCI-H23 lung): 614 nM
- TGI (NCI-H23 lung): > 50000 nM
- GI50 (CCRF-CEM leukemia): 197 nM
- TGI (CCRF-CEM leukemia): > 50000 nM
- GI50 (HOP-92 NSCLC): 260 nM
- TGI (HOP-92 NSCLC): > 30300 nM
- GI50 (LOX IMVI melanoma): 474 nM
- TGI (LOX IMVI melanoma): 1770 nM
- GI50 (UO-31 renal): 289 nM
- TGI (UO-31 renal): > 50000 nM
- GI50 (NCI/ADR-RES ovarian): 186 nM
- TGI (NCI/ADR-RES ovarian): > 50000 nM
- GI50 (HS 578T breast): 219 nM
- TGI (HS 578T breast): > 44100 nM
- GI50 (MDA-MB-231 breast): 438 nM
- TGI (MDA-MB-231 breast): > 37000 nM
- GI50 (EKVX NSCLC): 1980 nM
- TGI (EKVX NSCLC): > 50000 nM
- GI50 (T-47D breast): 271 nM
- TGI (T-47D breast): > 50000 nM
- GI50 (SK-OV-3 ovarian): 273 nM
- TGI (SK-OV-3 ovarian): > 50000 nM
- GI50 (MCF7 breast): 167 nM
- TGI (MCF7 breast): > 50000 nM
- GI50 (SK-MEL-28 melanoma): 1740 nM
- TGI (SK-MEL-28 melanoma): > 50000 nM
- GI50 (DU-145 prostate): 451 nM
- TGI (DU-145 prostate): > 50000 nM
- GI50 (KM12 colon): 241 nM
- TGI (KM12 colon): > 50000 nM
- GI50 (U251 CNS): 210 nM
- TGI (U251 CNS): 6370 nM
- GI50 (OVCAR-5 ovarian): 659 nM
- TGI (OVCAR-5 ovarian): > 50000 nM
- GI50 (IGROV1 ovarian): 292 nM
- TGI (IGROV1 ovarian): > 50000 nM
- GI50 (UACC-257 melanoma): 19600 nM
- TGI (UACC-257 melanoma): > 50000 nM
- GI50 (MDA-MB-435): 94 nM
- TGI (MDA-MB-435): 237 nM
- GI50 (NCI-H226 lung): 390 nM
- TGI (NCI-H226 lung): > 50000 nM
- GI50 (BT-549 breast): 208 nM
- TGI (BT-549 breast): 31400 nM
- GI50 (COLO 205 colon): 260 nM
- TGI (COLO 205 colon): 1960 nM
- GI50 (HCC-2998 colon): 836 nM
- TGI (HCC-2998 colon): > 13400 nM
- GI50 (SK-MEL-2 melanoma): 496 nM
- TGI (SK-MEL-2 melanoma): > 10500 nM
- GI50 (SW-620 colon): 226 nM
- TGI (SW-620 colon): > 50000 nM
- GI50 (HL-60(TB) leukemia): 134 nM
- TGI (HL-60(TB) leukemia): 3480 nM
- GI50 (SN12C renal): 282 nM
- TGI (SN12C renal): > 50000 nM
- GI50 (MOLT-4 leukemia): 213 nM
- TGI (MOLT-4 leukemia): > 50000 nM
- GI50 (HCT-15 colon): 202 nM
- TGI (HCT-15 colon): > 50000 nM
- GI50 (M14 melanoma): 193 nM
- TGI (M14 melanoma): > 50000 nM
- GI50 (HT29 colon): 177 nM
- TGI (HT29 colon): 739 nM
- GI50 (SF-539 CNS): 178 nM
- TGI (SF-539 CNS): 1280 nM
- GI50 (786-0 renal): 291 nM
- TGI (786-0 renal): > 18100 nM
- GI50 (A498 renal): 140 nM
- TGI (A498 renal): 831 nM
- GI50 (SF-295 CNS): 160 nM
- TGI (SF-295 CNS): 1150 nM
- GI50 (CAKI-1 renal): 291 nM
- TGI (CAKI-1 renal): > 50000 nM
- GI50 (NCI-H460 lung): 206 nM
- TGI (NCI-H460 lung): > 50000 nM
- GI50 (MALME-3M melanoma): 291 nM
- TGI (MALME-3M melanoma): > 50000 nM
- GI50 (RXF 393 renal): 128 nM
- TGI (RXF 393 renal): 440 nM
- GI50 (SNB-75 CNS): 123 nM
- TGI (SNB-75 CNS): 398 nM
- GI50 (ACHN renal): 303 nM
- TGI (ACHN renal): > 50000 nM
- GI50 (A549 NSCLC): 409 nM
- TGI (A549 NSCLC): > 50000 nM
- GI50 (SF-268 CNS): 854 nM
- TGI (SF-268 CNS): > 50000 nM
- GI50 (PC-3 prostate): 225 nM
- TGI (PC-3 prostate): > 50000 nM
- GI50 (K-562 leukemia): 152 nM
- TGI (K-562 leukemia): > 50000 nM
- GI50 (UACC-62 melanoma): 170 nM
- TGI (UACC-62 melanoma): > 50000 nM
- GI50 (NCI-H522 lung): 146 nM
- TGI (NCI-H522 lung): 740 nM
- GI50 (HOP-62 NSCLC): 319 nM
- TGI (HOP-62 NSCLC): > 50000 nM
- GI50 (HCT-116 colon): 241 nM
- TGI (HCT-116 colon): > 50000 nM
- GI50 (SK-MEL-5 melanoma): 206 nM
- TGI (SK-MEL-5 melanoma): 2110 nM
